Results on 1 compound are retold here after patent US4840956A, “Novel disubstituted-7-pyrrolidinoquinoline antibacterial agents” (Warner-Lambert Company, priority 1988, dated 1989).

Assay in all cases: MIC by microtitration dilution method
Assay type in all cases: cell-based

One experiment deals with Escherichia coli Vogel. Particulars: in vitro, read-out: Minimal Inhibitory Concentration MIC. An excerpt: (§1) Agents & Chemoth., 6, 124 (1974), which is incorporated herein by reference.
The subject of experiment [1] is Enterobacter cloacae MA 2646. The following applies: MA2646, read-out: Minimal Inhibitory Concentration MIC.
From the text: as §1

Experiment [2] deals with Pseudomonas aeruginosa UI-18. Particulars: UI18, read-out: Minimal Inhibitory Concentration MIC.
From the text: as §1

In another experiment the test system is Proteus rettgeri M 1771. Particulars: Providencia rettgeri, M1771; Proteus rettgeri M 1771, in vitro; read-out: Minimal Inhibitory Concentration MIC.
From the text: as §1

The test system of experiment [3] is Klebsiella pneumoniae MGH-2. Particulars: MGH2, read-out: Minimal Inhibitory Concentration MIC.
From the text: as §1

For experiment [4], the system named is Staphylococcus aureus UC-76. The following applies: UC76; Staphylococcus aureus UC-76, in vitro; read-out: Minimal Inhibitory Concentration MIC. An excerpt: (§2) The compounds of the invention display antibacterial activity when tested by the microtitration dilution method as described in Heifetz, et al, Antimicr. Agents & Chemoth., 6, 124 (1974), which is incorporated herein by reference.
(§3) By use of the above referenced method, the following minimum inhibitory concentration values (MICs in μg/ml) were obtained for representative compounds of the invention.

The subject of experiment [5] is Streptococcus pyogenes C-203. Particulars: C203; Streptococcus pyogenes C-203, in vitro; read-out: Minimal Inhibitory Concentration MIC.
From the text: as §2, §3

Experiment [6] relates to Streptococcus pneumoniae SV-1. The following applies: SV1; Streptococcus pneumoniae SV-1, in vitro; read-out: Minimal Inhibitory Concentration MIC.
From the text: as §2, §3

Experiment [7] has as its system Staphylococcus aureus H 228. Particulars: H228; Staphylococcus aureus H 228, in vitro; read-out: Minimal Inhibitory Concentration MIC.
From the text: as §2, §3

Experiment [8] deals with Streptococcus faecalis MGH-2. The following applies: Enterococcus faecalis, MGH2; Streptococcus faecalis MGH-2, in vitro; read-out: Minimal Inhibitory Concentration MIC.
From the text: as §2, §3

Molecules are shown by their SMILES. ≈ marks a conversion by molar mass, not a printed value.

On to `NCC1(c2ccccc2)CCN(c2c(F)cc3c(=O)c(C(=O)O)cn(C4CC4)c3c2F)C1` (stereo not shown) [Example 5, 7-[[3-(Aminomethyl)-3-phenyl]-1-pyrrolidinyl]-1-cyclopropyl-6,8-difluro-1,4-dihydro-4-oxo-3-quinolinecarboxylic acid], for which the MIC in the experiment on Escherichia coli Vogel is 0.05 µg/mL (≈ 0.114 µM); in [1] it was 0.05 µg/mL (≈ 0.114 µM); in [2], 0.4 µg/mL (≈ 0.91 µM); in the experiment on Proteus rettgeri M 1771 it was 0.2 µg/mL (≈ 0.455 µM); in experiment [3], 0.1 µg/mL (≈ 0.228 µM); in [4] it was 0.013 µg/mL (≈ 0.0296 µM). Moreover, the MIC is 0.05 µg/mL (≈ 0.114 µM) in experiment [5], 0.013 µg/mL (≈ 0.0296 µM) in [6], 0.025 µg/mL (≈ 0.0569 µM) in [7] and 0.05 µg/mL (≈ 0.114 µM) in experiment [8].
